The record followed here is article PMC12844124, “Synthesis and Study of Substituted Chalcones Combined with Fluoroazobenzenes—New Photoswitches for Application in Biological Systems” (Molecules, 2026).

Structures are written as SMILES.

Holding throughout (assay type): physicochemical
Data set [1] in a line: UV–VIS spectra of E/Z isomers in DMSO. As to conditions: for Δ λmax n→π*: between E and Z isomers. The procedure: For this purpose, the UV–VIS spectra were measured for all synthesized hybrids (17a–17l) at concentrations from 20 to 500 µM in dimethyl sulfoxide (DMSO) in light at λ 505 nm and for (17a–17c), (17e–17g), and (17i–17l) at λ 525 nm, respectively, as detailed in Table 1 (see Section S4.4 in Supplementary Materials).

The next data set in a line: Solubility in DMSO.
The nature of data set [2]: Photostationary state (PSS) composition by 19F NMR. As to conditions: irradiation 525 nm, DMSO-d6. The source says:
Azo compounds have been applied in various fields due to their ability to undergo structural changes, with one of the most interesting applications being the direct conversion of light into mechanical energy. However, azobenzenes generally face two main limitations that hinder their practical use in biological and materials sciences. The first is the need for UV light to induce the E→Z isomerization through π→π* excitation, which can potentially interfere with and damage the surrounding environment. The second limitation is the typically incomplete reverse Z→E photoisomerization, which is induced by irradiation in the visible region. In this region, the n→π* bands of the E and Z isomers largely overlap, making it difficult to achieve E-rich photostationary states (PSSs) after back-switching. These limitations can be overcome by modifying azobenzene in such a way that the n→π* bands of the E and Z isomers are sufficiently separated. If the separation is large enough, the two n→π* bands can be distinct, allowing visible light to selectively isomerize both isomers with high to complete E/Z photoconversions. We are looking for switches that operate within the visible light range of 380–750 nm, which is harmless. Fluorine-substituted azobenzenes are well-suited for designing visible-light-responsive systems, offering stable and bidirectional photoconversions along with tissue-compatible properties. We confirmed that the compounds we synthesized successfully dock with tubulin. In the next step, we tested whether the added azo compound would meet our expectations as a visible light switch. For this purpose, we used NMR spectroscopy. We measured ^19F spectra of (17a–17c, 17e–17g, and 17i–17l) at nine wavelengths from 390 nm to 610 nm to check which wavelengths produce the most Z isomer after exposure (see Section S4.2 in Supplementary Materials). We selected DMSO as the solvent due to its ability to dissolve both polar and nonpolar molecules, which is essential for the analytical methods employed in this study. Its intermediate polarity also makes it a good surrogate for both organic and aqueous solvents. Additionally, DMSO is commonly used for preparing stock solutions, which are then illuminated and diluted into aqueous systems for assessing biological activity. […]
Figure 2 (a) Photostationary state (PSS) compositions for chalcones (17a–17c, 17e–17g, and 17i–17l) determined by ^19F NMR analysis (c ≈ 100 mM in DMSO-d6), presented in a bar chart; (b) representative multiple photoswitching rounds of 60 µM of (17j) in DMSO by pulsed green (525 nm) and blue (430 nm) light illumination. The photochemical stability of the drug is analyzed via repeated cycles of irradiation (software: Microsoft Excel).

Data set [3] in a line: Changes over time of Z to E transition by 19F NMR. As to conditions: light 525 nm, 100 mM in DMSO. An excerpt:
We can observe that for electromagnetic radiation in the range of wavelengths 390 nm to 610 nm, transitions from E to Z of about 0–76% are obtained. The best results for all compounds are in visible wavelengths 505 nm or 525 nm (30.59–75.44%). From analyzing Figure 2 we can draw the following conclusions: all synthesized compounds undergo switching under visible light (this is important because UV radiation can damage the DNA of cells, inhibiting replication and, as a result, preventing cell division). For the 2,6-difluoro substituents (17i), (17j), (17k), and (17l) with values of 74.84%, 73.2%, 74.39%, and 75.44%, respectively, the largest share of the Z configuration is at (525 nm) and, for the rest of (17a), (17b), (17c), (17e), (17f), and (17g), it is in range of 30.57–47.13% at 505 nm. […] Multiple cycles of photoreversible switching under alternating green and blue light irradiation, with no significant photobleaching or degradation, confirmed the repeatable and robust photochromic conversion of the synthesized azobenzenes (Figure 2b). Then we measured changes over time (transitions from Z to E, upon irradiation with 505 nm for (17a–17c) and (17e–17g), and 525 nm for (17i–17l) compounds (Figure 3, and see Section S4.3 in Supplementary Materials).

`O=C(/C=C/c1ccc(Br)cc1)c1cccc(/N=N/c2ccc(F)cc2)c1` [Compound 17d]: in data set [1] (E isomer), the “εmax (n→π*)” value was determined as 660 dm^3·mol^−1·cm^−1 and the “λmax n→π* (E)” value worked out at 440.8 nm. Moreover, in data set [1] (Z isomer), the “εmax (n→π*)” value is recorded as 850 dm^3·mol^−1·cm^−1 and the “λmax n→π* (Z)” value turned out to be 434.1 nm. For the same molecule, the “Δ λmax n→π*” value in data set [1] stood at 6.7 nm. Further, the “solubility in DMSO” value in “Solubility in DMSO” was “poorly soluble”.

Regarding `O=C(/C=C/c1ccc(Br)cc1)c1cccc(/N=N/c2ccc(F)cc2F)c1` [Compound 17h], in data set [1] (E isomer), the “εmax (n→π*)” value is given as 796 dm^3·mol^−1·cm^−1 and the “λmax n→π* (E)” value is recorded as 441.2 nm. In data set [1] (Z isomer), the “εmax (n→π*)” value is listed as 1016 dm^3·mol^−1·cm^−1 and the “λmax n→π* (Z)” value is 426.9 nm. Also, the “Δ λmax n→π*” value in data set [1] was determined as 14.3 nm. The “solubility in DMSO” value in “Solubility in DMSO” is “poorly soluble”.

`COc1ccc(/C=C/C(=O)c2cccc(/N=N/c3c(F)cccc3F)c2)cc1OC` [Compound 17i]: the “share of the Z configuration (PSS)” value in data set [2] amounted to 74.84%. Also, the “Z isomer, changes over time” value in data set [3] (0 h) turned out to be 74.84%; in data set [3] (1 h), 73.32%; in data set [3] (2 h), 72.17%; in data set [3] (3 h) it was 70.9%; in data set [3] (4 h), 69.59%; in data set [3] (5 h), 68.98%. The results for the “Z isomer, changes over time” value in data set [3] (6 h), in data set [3] (7 h) and in data set [3] (8 h) were 68%, 67.46% and 66.19%, respectively. In addition, the “Δ (Z to E change 0 h to 8 h)” value in data set [3] worked out at 8.65%.

For the molecule `COc1cc(/C=C/C(=O)c2cccc(/N=N/c3c(F)cccc3F)c2)cc(OC)c1OC` [Compound 17k], the “share of the Z configuration (PSS)” value in data set [2] is recorded as 74.39%. In addition, the “Z isomer, changes over time” value stood at 74.39% in data set [3] (0 h); 74.02% in data set [3] (1 h); 72.48% in data set [3] (2 h); 72.26% in data set [3] (3 h); 70.95% in data set [3] (4 h); 70.43% in data set [3] (5 h). The “Z isomer, changes over time” value in data set [3] (6 h) is recorded as 69.33%; in data set [3] (7 h), 67.93%; in data set [3] (8 h), 67.18%. Moreover, the “Δ (Z to E change 0 h to 8 h)” value in data set [3] was 7.21%.

On to `O=C(/C=C/c1ccc(Br)cc1)c1cccc(/N=N/c2c(F)cccc2F)c1` [Compound 17l], for which the “share of the Z configuration (PSS)” value in data set [2] stood at 75.44%. In addition, the “εmax (n→π*)” value in data set [1] (E isomer) was found to be 902 dm^3·mol^−1·cm^−1; in data set [1] (Z isomer) it was 1074 dm^3·mol^−1·cm^−1. In addition, the “λmax n→π* (E)” value in data set [1] (E isomer) stood at 448.6 nm. The “λmax n→π* (Z)” value in data set [1] (Z isomer) stood at 417.9 nm. The “Δ λmax n→π*” value in data set [1] is recorded as 30.7 nm. Also, the “Z isomer, changes over time” value in data set [3] (0 h) is 75.44%; in data set [3] (1 h) it was 74.04%; in data set [3] (2 h), 72.7%; in data set [3] (3 h), 71.56%; in data set [3] (4 h), 70.77%; in data set [3] (5 h), 69.92%. Besides, the figures for the “Z isomer, changes over time” value in data set [3] (6 h), in data set [3] (7 h) and in data set [3] (8 h) were 68.63%, 67.93% and 67.78%, respectively. Moreover, the “Δ (Z to E change 0 h to 8 h)” value in data set [3] was found to be 7.66%.
